According to ChEMBL document CHEMBL3046166, “Synthesis and biological evaluation of some new Thiazolo[3,2-a][1,3,5]triazine derivatives” (2012):
The source made the active and inactive calls. The rule behind the calls is not given here.

Experiments:
Escherichia coli = test: Antibacterial activity against Escherichia coli after 24 hr by agar diffusion technique; format: functional
[1] = Induction of DNA fragmentation using ethidium bromide staining by agarose gel electrophoresis

Structure (SMILES)	Activity [1]	diameter of the inhibition zone (DIZ) (Escherichia coli) [mm]
N=C1NC(=O)CS1	Active	14
O=c1/c(=C/c2ccc(Cl)cc2)sc2n1CN(c1ccccc1)CN=2	Active	14
N=C1NC(=O)/C(=C/c2ccccc2)S1	Active	15
CSC(=S)C1Sc2nc(=S)sc(=S)n2C1=O (centres undefined)	Active	14
CN(C)/C=c1\sc2n(c1=O)CN(c1ccccc1)CN=2	Active	26
CC1(C)S[C@@H]2[C@H](NC(=O)[C@H](N)c3ccccc3)C(=O)N2[C@H]1C(=O)O [AMPICILLIN]	–	21

Further lines, with some results ahead:

Activity [1]	Structure (SMILES)	diameter of the inhibition zone (DIZ) (Escherichia coli) [mm]
Active	O=C1CSC2=NCN(c3ccccc3)CN12	26
Active	O=c1/c(=C/c2ccc3c(c2)OCO3)sc2n1CN(c1ccccc1)CN=2	14
Active	Cc1ccc(N/N=C2/SC3=NCN(c4ccccc4)CN3C2=O)cc1	13
Active	O=c1/c(=C/c2ccc(/C=c3/sc4n(c3=O)CN(c3ccccc3)CN=4)cc2)sc2n1CN(c1ccccc1)CN=2	14
